Assay results: patent publication US8951397B2, “Electrophoretic analysis method” (Godo Shusei Co., Ltd., priority 2009, dated 2015)

How the values were obtained:
D protease [1] = target: T1, D protease (Paenibacillus polymyxa, UniProt P29148); experiment: Inhibition, activation and stabilization of D protease; format: biochemical; conditions: for Inhibition of D protease: metal chelating agents and oxidizing agents
D protease [2] = target: T1, D protease; conditions: Patent Document 1; cited from earlier work

T1 sequence (P29148 287-590): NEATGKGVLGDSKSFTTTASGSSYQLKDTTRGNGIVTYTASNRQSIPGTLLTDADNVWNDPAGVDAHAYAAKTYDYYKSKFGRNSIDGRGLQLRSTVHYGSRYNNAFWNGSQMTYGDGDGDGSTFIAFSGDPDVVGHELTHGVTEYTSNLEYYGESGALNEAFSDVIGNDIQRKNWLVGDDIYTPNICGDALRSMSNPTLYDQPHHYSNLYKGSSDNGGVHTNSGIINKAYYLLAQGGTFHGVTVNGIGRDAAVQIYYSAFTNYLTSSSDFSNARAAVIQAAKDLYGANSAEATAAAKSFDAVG

Row | Compound | Inhibition of D protease (D protease [1]) | Effect on D protease activity (D protease [2]) | other results
1 | c1ccc(-c2ccccn2)nc1 [2,2-dipyridyl] | inhibited | – | –
2 | [Al+3] [Al^3+] | – | activity enhanced | –
3 | [Ca+2] [Ca^2+] | – | activity enhanced | Stabilization of D protease (D protease [1]): stabilized
4 | [Fe+2] [Fe^2+] | – | activity enhanced | –
5 | [Mg+2] [Mg^2+] | – | activity enhanced | –
6 | [Mn+2] [Mn^2+] | – | activity enhanced | –
7 | O=C1CCC(=O)N1Br [N-bromosuccinimide] | inhibited | – | –
8 | c1cnc2c(c1)ccc1cccnc12 [O-phenanthroline] | inhibited | – | –
9 | O=C(O)CC(O)(CC(=O)O)C(=O)O [citric acid] | inhibited | – | –
10 | II [iodine] | inhibited | – | –
11 | [F-].[Na+] [sodium fluoride] | inhibited | – | –
12 | [Zn+2] [zinc ion] | – | – | Activation of D protease (D protease [1]): activation thereof requires zinc ion
